Experiments:
primary HSCs = test: Protection of primary HSCs from DMSO cytotoxicity; format: cell-based, Wistar rat; details: DBZIM 100 μM, TDBZIM 50 μM
Procedure: FIG. 5. DBZIM and TDBZIM protected primary HSC cells against oxidative stress induced by 0.2% (v/v) of DMSO. (a) Optical images of cells treated with IMSs for 26 and 93 h. Scale bar=60 μm. 0.2% (v/v) of DMSO induced oxidative stress by depleting the total GSH level (b), inducing the GSSG level (c), reducing the GSH/GSSG ratio (d), and inducing GPX (e), CAT (f) and SOD (g) activity levels. The data were presented as mean and SEM, N=6, *^cP<0.005, and *^dP<0.0005; when compared to the untreated sample.
The isolation of primary HSCs from Wistar rat liver was performed primarily following the method provided in a previous report (Weiskirchen et al. 2005). Briefly, the supernatant of cell suspension after hepatocyte removal was washed and re-suspended in 9.5 ml of Gey's balance salt solution (GBSS), and mixed with 8 ml of 28.7% (w/v) Histodenz in GBSS. The gradient was prepared by laying the cell suspension underneath 6 ml of GBSS, and centrifuged in Histodenz gradient at 1400×g for 20 min. The stellate cells were separated into a fuzzy band just above the interface of the Histodenz solution and the aqueous buffer. The stellate cell band was harvested, washed, and 1×10^6 cells/well were seeded in a 6-well culture plate in Dulbecco modified Eagle's medium (DMEM) supplemented with 10% fetal bovine serum (FBS). The viability of the HSCs was >95% as determined by trypan blue exclusion staining, and the purity of the HSCs was >90% as assessed by glial fibrillary acidic protein (GFAP) positive staining in >200 cells counted. Primary HSCs were routinely cultured in DMEM with 10% FBS in a humidified CO2 incubator at 37° C., and split at 1:4 ratio by trypsinization (0.05% trypsin/0.53 mM ethylenediaminetetraacetic acid (EDTA)) when they grew to confluency. The HSC-T6 cell line was kindly provided by Dr. Scott Friedman of Mount Sinai School of Medicine, New York. A stable T6/GFAP-LacZ clonal cell line was established as previously reported (Maubach et al. 2006). HSC-T6 and T6/GFAP-LacZ cells were cultured in the same conditions as the primary HSCs.

IL-6 = test: Real-time RT-PCR of IL-6 mRNA in HSC T6 cells; format: cell-based, rat; details: for inhibition of IL-6 transcription: 48 h
Procedure: FIG. 10. DBZIM and TDBZIM suppressed IL-6 mRNA. HSC T6 cells were incubated with DBZIM (1, 10, 100 and 300 μM) and (b) TDBZIM (1, 10 and 100 μM) for 48 h for the dosage-dependent study, and (c) with DBZIM (100 μM) and TDBZIM (100 μM) for 8, 24 and 48 h for the time-dependent study. The expression level of IL-6 mRNA was quantified with real-time RT-PCR. The data were presented as mean and SEM, N=6, *^bP<0.01, *^cP<0.005, and *^dP<0.0005, when compared to the vehicle control.
Total RNA was isolated using NucleoSpin RNAII isolation kit (Nacherey & Nagel, Germany), and quantified by ND-100 spectrophotometer (Nanodrop Technologies, DE, USA). The details of real-time RT-PCR were reported elsewhere (Zhang et al. 2006). Briefly, it was a two-step real-time RT-PCR using Taqman chemistry. Total RNA was first reverse transcribed to cDNA, and real-time PCR was run and detected in ABI 7500 Fast Real-Time PCR System (Applied Biosystems, CA, USA). Primers and probes for rat GFAP, SMAA, collagen Ia1, fibronectin, TGF-β1, TGF-β receptor I (TGFβ RI) and IL-6 were ordered from Taqman's assay-on-demand database. Rat β-actin was used as normalization gene, and its expression level was constant (CT difference was <±0.5) throughout the experimental settings in this study. Relative quantification of target mRNA was calculated using comparative threshold cycle method (ΔΔCT) as described in User Bulletin #2 (ABI Prism 7700 Sequence Detection System). Relative quantification was given by 2^−ΔΔCT to express the up-regulation or down regulation of the target gene under the treatments compared to the control.

NF-κB P65 = test: Western blotting of nuclear NF-κB and AP-1 in HSC T6 cells; format: cell-based, rat; details: DBZIM 100 μM, TDBZIM 50 μM, 48 h
Procedure: FIG. 11. Western blotting of NF-κB and AP-1 (c-Fos, JunD and Fra-1) protein expressions in HSC T6 cells treated with DBZIM (100 μM) and TDBZIM (50 μM) for 48 h. 15 μg of nuclear protein was resolved in 4-12% gradient PAGE-SDS gel. The target proteins were recognized by the respective antibodies, and visualized by the ECL method. The membrane was stripped and probed for the Tata binding protein TBP used as the loading control.
Protein extracts were prepared by lysing a cell pellet in 10 volumes of boiled 1% sodium dodecyl sulfate (SDS) (90-95° C.) for 10 min for GFAP, or using NE-PER nuclear and cytoplasmic extraction reagents from Pierce (IL, USA) for nuclear proteins, or RIPA (Pierce, Ill., USA) for SMAA, fibronectin, collagen αI(I), TGF-β1 and TGFβ RI. Protein content was quantified using a BCA kit (Pierce, Ill., USA). […] The membrane was then probed with primary antibodies against GFAP (Dako, Denmark), SMAA (Sigma, USA), procollagen αI(I), fibronectin, c-Jun, c-Fos, JunB, JunD, Fra-1, Fra-2 (Santa Cruz Biotechnology, CA, USA), NF-κB P65, TGF-β1 and TGFβ RI (Abeam, UK), and detected by horseradish peroxidase-conjugated secondary antibody (Santa Cruz Biotechnology, CA, USA). […] Protein bands were recorded on X-ray film by reacting with ECL chemiluminescence reagents (Amersham Biosciences, NJ, USA). […]

Compound | cell survival in 0.2% (v/v) DMSO (primary HSCs; 26 h) | cell survival in 0.2% (v/v) DMSO (primary HSCs; over 93 h) | inhibition of IL-6 transcription (IL-6; 1 μM) | inhibition of IL-6 transcription (IL-6; 10 μM) | inhibition of IL-6 mRNA expression (IL-6; 100 μM, 24 h) | inhibition of IL-6 transcription (IL-6; 100 μM) | nuclear NF-κB P65 (active form) protein (NF-κB P65) | suppression of IL-6 mRNA (IL-6; 100 μM, shorter treatment than 48 h (8, 24 h)) | inhibition of IL-6 transcription (IL-6; 300 μM)
1,3,5-tris(4-methyl-imidazolium)-linked cyclophane.3Br [TDBZIM] | survived | remained viable and proliferated to confluency | 37% | 55% | 52% | 80% | significantly attenuated |  | 
[Br-].c1ccc(Cn2cc[n+](Cc3ccccc3)c2)cc1 [DBZIM, 1,3-bisbenzylimidazolium bromide] | survived | most cells died | 37% | 46% |  | 53% | significantly attenuated | did not show statistically significant suppression | 59%

Reference: patent US9072729B2, “Method for treating fibrosis and cancer with imidazolium and imidazolinium compounds” (Agency for Science, Technology and Research, priority 2008, dated 2015)
